The nature of data set [1]: Fraction unbound in Wistar Han rat plasma at 2 uM incubated for 6 hrs by equilibrium dialysis method. (In equilibrium dialysis free small molecules cross a membrane that holds back macromolecules.)
The nature of data set [2]: Fraction unbound in Wistar Han rat white adipose tissue at 2 uM incubated for 6 hrs by equilibrium dialysis method.
Data set [3] is described as follows: Fraction unbound in Wistar Han rat brain at 2 uM incubated for 6 hrs by equilibrium dialysis method.
Data set [4] is described as follows: Fraction unbound in Wistar Han rat heart at 2 uM incubated for 6 hrs by equilibrium dialysis method.
Data set [5] in a line: Fraction unbound in Wistar Han rat liver at 2 uM incubated for 6 hrs by equilibrium dialysis method.
Data set [6] can be described thus: Fraction unbound in Wistar Han rat skeletal muscle at 2 uM incubated for 6 hrs by equilibrium dialysis method.
A short description of data set [7]: Total plasma concentration in Wistar Han rat at 1 to 2 mg/kg, iv infused for 10 to 20 hrs by LC-MS/MS analysis. As to conditions: in vivo.
Data set [8] is described as follows: Drug concentration in total white adipose tissue in Wistar Han rat at 1 to 2 mg/kg, iv infused for 10 to 20 hrs by LC-MS/MS analysis. As to conditions: in vivo.
Data set [9] in a line: Drug concentration in total brain in Wistar Han rat at 1 to 2 mg/kg, iv infused for 10 to 20 hrs by LC-MS/MS analysis. The settings on record: in vivo.
The nature of data set [10]: Drug concentration in total heart in Wistar Han rat at 1 to 2 mg/kg, iv infused for 10 to 20 hrs by LC-MS/MS analysis. As to conditions: in vivo.
The nature of data set [11]: Drug concentration in total liver in Wistar Han rat at 1 to 2 mg/kg, iv infused for 10 to 20 hrs by LC-MS/MS analysis. The settings on record: in vivo.
Data set [12] is described as follows: Drug concentration in total skeletal muscle in Wistar Han rat at 1 to 2 mg/kg, iv infused for 10 to 20 hrs by LC-MS/MS analysis. As to conditions: in vivo.
The nature of data set [13]: Unbound tissue partition coefficient, ratio of drug level in heart to plasma in Wistar Han rat at 1 to 2 mg/kg, iv infused for 10 to 20 hrs by LC-MS/MS analysis. As to conditions: heart/plasma.
A short description of data set [14]: Unbound tissue partition coefficient, ratio of drug level in brain to plasma in Wistar Han rat at 1 to 2 mg/kg, iv infused for 10 to 20 hrs by LC-MS/MS analysis. As to conditions: brain/plasma.
A short description of data set [15]: Unbound tissue partition coefficient, ratio of drug level in adipose to plasma in Wistar Han rat at 1 to 2 mg/kg, iv infused for 10 to 20 hrs by LC-MS/MS analysis. The settings on record: adipose/plasma.
A short description of data set [16]: Unbound tissue partition coefficient, ratio of drug level in liver to plasma in Wistar Han rat at 1 to 2 mg/kg, iv infused for 10 to 20 hrs by LC-MS/MS analysis. As to conditions: liver/plasma.
Data set [17] can be described thus: Unbound tissue partition coefficient, ratio of drug level in skeletal muscle to plasma in Wistar Han rat at 1 to 2 mg/kg, iv infused for 10 to 20 hrs by LC-MS/MS analysis. As to conditions: skeletal muscle/plasma.
A short description of data set [18]: Apparent permeability of the compound across dog RRCK cells by MDCK-LE assay.

For the compound `COc1cc(/C=C2\CCCN([C@@H](C)c3ccc(F)cc3)C2=O)ccc1-n1cnc(C)c1`, the fraction unbound at 6 h, 2 µM in data set [1] turned out to be 0.00785; in [2], 0.00185; in data set [3], 0.00429; in [4], 0.00363; in data set [5] it was 0.00939; in data set [6], 0.0012. Moreover, the Cp in [7] is 210 ng/mL. For the same compound, the Ct was 1800 ng/mL in data set [8]; 150 ng/mL in data set [9]; 360 ng/mL in [10]; 1200 ng/mL in data set [11]; 180 ng/mL in data set [12]. The Kp uu in data set [13] stood at 0.77; in data set [14] it was 0.4; in data set [15] it was 2.3; in [16] it was 7; in data set [17] it was 0.13. Further, the Papp in [18] amounted to 16 ×10⁻⁶ cm/s.
With `O=C(O)c1c[nH]c2cc(Cl)c(-c3ccc(CC(=O)N4CCOCC4)cc3)cc12`, the fraction unbound at 6 h, 2 µM in data set [1] came out at 0.00645; in data set [2], 0.386; in [3] it was 0.181; in data set [4] it was 0.0746; in [5] it was 0.0789; in data set [6], 0.133. In data set [7], the Cp amounted to 72 ng/mL. Moreover, the Ct in data set [8] was found to be 2 ng/mL; in data set [9], 0.38 ng/mL; in [10], 21 ng/mL; in data set [11], 210 ng/mL; in data set [12], 0.89 ng/mL. In addition, the Kp uu was determined as 3.4 in [13]; 0.0018 in data set [14]; 1.6 in data set [15]; 40 in [16]; 0.16 in data set [17]. The apparent permeability (Papp) in data set [18] amounted to 2.4 ×10⁻⁶ cm/s.
Consider `Cc1c(C(=O)O)cnn1-c1nc(-c2cccc(C(F)(F)F)c2)cs1`, for which the fraction unbound at 6 h, 2 µM in data set [1] was 0.00965; in data set [2] it was 0.0597; in [3], 0.00498; in data set [4], 0.00954; in data set [5] it was 0.00676; in data set [6] it was 0.0139. The Cp in [7] was 93 ng/mL. The Ct in data set [8] amounted to 13 ng/mL; in data set [9] it was 22 ng/mL; in data set [10], 130 ng/mL; in data set [11], 520 ng/mL; in data set [12], 29 ng/mL. The Kp uu in data set [13] stood at 1.4; in data set [14] it was 0.12; in data set [15], 0.86; in data set [16], 3.9; in data set [17], 0.45. In addition, the Papp in data set [18] was 38 ×10⁻⁶ cm/s.
On to `C[C@H](c1nc2cnc(N3CCC[C@@H](C(=O)N4CCCC4)C3)nc2[nH]1)n1cc(Cl)cn1`, for which the fraction unbound at 6 h, 2 µM in data set [1] came out at 0.186; in data set [2] it was 0.256; in data set [3], 0.155; in data set [4] it was 0.121; in [5], 0.111; in data set [6] it was 0.0901. In data set [7], the Cp was 50 ng/mL. The Ct stood at 39 ng/mL in [8]; 1.8 ng/mL in data set [9]; 120 ng/mL in data set [10]; 240 ng/mL in [11]; 56 ng/mL in data set [12]. For the same compound, the Kp uu in [13] stood at 1.5; in [14], 0.013; in data set [15], 1.1; in data set [16], 2.8; in data set [17] it was 0.54. For the same compound, the Papp in data set [18] was 24 ×10⁻⁶ cm/s.
As for `O=C(O)c1nc2cc(Cl)c(Cl)cc2nc1O` [6,7-DICHLORO-3-HYDROXY-2-QUINOXALINECARBOXYLIC ACID], the fraction unbound at 6 h, 2 µM in data set [1] amounted to 0.0414; in [2] it was 0.476; in data set [3] it was 1; in data set [4], 0.284; in [5], 0.24; in [6], 0.435. This compound yielded a Cp in data set [7] of 56 ng/mL. Also, the Ct in [8] is 0.77 ng/mL; in data set [9] it was 0.38 ng/mL; in data set [10] it was 12 ng/mL; in [11] it was 17 ng/mL; in [12], 5.3 ng/mL. Further, the Kp uu in [13] stood at 1.8; in [14] it was 0.0018; in data set [15], 0.024; in data set [16] it was 2; in data set [17], 1.1. The Papp in [18] came out at 1.3 ×10⁻⁶ cm/s.
For `CN(C)C(=O)c1cc(CC(=O)O)ccc1NC(=O)c1ccccc1-c1ccc(C(F)(F)F)cc1`, the fraction unbound at 6 h, 2 µM is 0.214 in data set [1]; 0.309 in data set [2]; 0.183 in data set [3]; 0.311 in [4]; 0.205 in data set [5]; 0.174 in data set [6]. This compound yielded a Cp in [7] of 83 ng/mL. Further, the Ct was determined as 5.7 ng/mL in [8]; 0.42 ng/mL in [9]; 44 ng/mL in [10]; 4200 ng/mL in [11]; 21 ng/mL in data set [12]. In addition, the Kp uu in data set [13] worked out at 0.77; in data set [14], 0.0037; in [15], 0.1; in [16], 49; in data set [17], 0.21. Moreover, in data set [18], the Papp amounted to 1.4 ×10⁻⁶ cm/s.
With `Cn1cnc(-c2ccc(O[C@H]3CCN(C(=O)Cc4ccc(OC(F)(F)F)cc4)C[C@@H]3F)c(C(N)=O)c2)c1`, the fraction unbound at 6 h, 2 µM was determined as 0.0645 in data set [1]; 0.179 in data set [2]; 0.0216 in data set [3]; 0.0378 in data set [4]; 0.0393 in data set [5]; 0.0611 in [6]. Besides, the Cp in data set [7] came to 76 ng/mL. In addition, the Ct stood at 6 ng/mL in data set [8]; 0.38 ng/mL in data set [9]; 100 ng/mL in data set [10]; 540 ng/mL in [11]; 69 ng/mL in data set [12]. Also, the Kp uu in data set [13] was 0.8; in data set [14], 0.0018; in [15] it was 0.21; in data set [16], 4.4; in [17], 0.87. For the same compound, in data set [18], the Papp worked out at 14 ×10⁻⁶ cm/s.
Regarding `CC1(C)CN(CCC#N)C(=O)[C@@H]1Oc1ccc(C#N)c(C(F)(F)F)c1`, the free fraction (fraction unbound) at 6 h, 2 µM was 0.358 in data set [1]; 0.185 in [2]; 0.0717 in data set [3]; 0.152 in data set [4]; 0.122 in [5]; 0.263 in data set [6]. Further, the Cp in data set [7] was 160 ng/mL. For the same compound, the Ct came to 250 ng/mL in [8]; 91 ng/mL in data set [9]; 210 ng/mL in data set [10]; 500 ng/mL in data set [11]; 110 ng/mL in data set [12]. For the same compound, the Kp uu in data set [13] worked out at 0.55; in data set [14] it was 0.11; in data set [15] it was 0.81; in data set [16] it was 1; in [17] it was 0.48. For the same compound, in data set [18], the Papp amounted to 40 ×10⁻⁶ cm/s.

One may read the fraction unbound as free concentration divided by total concentration. Low readings indicate little free substance, high ones much free substance. A word on the Papp: it is a coefficient for how fast a substance crosses the barrier.
